Converted amounts (≈) assume the structure as drawn.
Assays:
[1] = system: NIH/3T3 (murine fibroblast) cells; assay: MTT cell viability assay in NIH/3T3 cells; type: cell-based
Method: (§1) The HeLa (cervical cancer) and NIH/3T3 (murine fibroblast) cells were seeded in 96-well plates at a density of 3 × 10^4 cells/well in DMEM (Dulbecco’s Modified Eagle Medium; Gibco, Thermo Fisher, Paisley, UK), supplemented with 10% fetal bovine serum (FBS; Cultilab®, São Paulo, Brazil) and 1% penicillin/streptomycin (Pen/Strep—Cultilab®, Campinas, Brazil). The cells were incubated at 37 °C in a humidified atmosphere containing 5% CO2 for 24 h. After incubation, the cells were treated with EUD and EUA extracts at concentrations ranging from 3.5 µg/mL to 250 µg/mL and incubated for an additional 48 h. The cell lines were kindly donated by Cemib (Multidisciplinary Center for Biological Research in the Laboratory Animal Science Area, Campinas, Brazil)—Unicamp/SP.
(§2) One row of wells was treated only with the vehicle (culture medium) to serve as the negative control, representing 100% cell viability. Doxorubicin (Libbs®, São Paulo, Brazil) and carboplatin (Blau Farmacêutica®, São Paulo, Brazil) were used as the positive controls.
Following treatment, the medium was removed, and 100 µL/well of MTT reagent (5 mg/mL; 3-[4,5-dimethylthiazol-2-yl]-2,5-diphenyltetrazolium bromide; Invitrogen, Thermo Fisher, Waltham, MA, USA) was added. […] Absorbance was measured at 570 nm using an Epoch-Biotek ELISA microplate spectrophotometer (BioTek Instruments, Winooski, VT, USA). […]

[2] = system: HeLa cells; assay: Cell migration assay (scratch assay); type: cell-based, human; details: EUD 7.5 μg/mL, EUA 10 μg/mL, doxorubicin 0.375 μg/mL
Method: The HeLa cells (70,000–80,000 cells/well) were seeded in 24-well plates with DMEM supplemented with 10% FBS and 1% Pen/Strep and incubated at 37 °C with 5% CO2 until 80% confluence. The medium was replaced with DMEM containing 0.2% FBS, and after 24 h, a scratch was made in the cell monolayer using a 1000 µL pipette tip. The cells were washed with sterile PBS, and they were treated with doxorubicin (positive control) and EUD and EUA extracts at ¼ of their IC50 values: 7.5 µg/mL (EUD), 10 µg/mL (EUA), and 0.375 µg/mL (doxorubicin).
Images were captured at 0 h (T0), 12 h (T1), 18 h (T2), and 24 h (T3) using an EVOS XL Core Imaging System microscope (10× objective). Scratch area percentages were analyzed using the ImageJ software 1.54g/Java 1.8.0_421 (32-bit), and statistical analysis was performed using one-way ANOVA with GraphPad Prism 8.4.3. All the experiments were conducted in triplicate.

[3] = system: HeLa cells; assay: Cell cycle analysis by flow cytometry with PI staining; type: cell-based, human; details: treated at IC50, 48 h
Method: The HeLa cells (2 × 10^5 cells/well) were seeded in 6-well plates and incubated for 24 h. The cells were then treated with the EUD and EUA extracts and doxorubicin at their respective IC50 concentrations. The vehicle-treated cells served as the negative control. After 48 h, cells were harvested with trypsin, centrifuged, fixed in 70% ethanol, and stained with propidium iodide (PI) (Sigma-Aldrich®). The samples were incubated at 37 °C for 30 min in the dark and analyzed using a BD Accuri™ C6 Plus flow cytometer. Histograms were processed with the Cell Quest Pro software (version 5.1). Data was analyzed using two-way ANOVA in GraphPad Prism 8.4.3, with significance at p < 0.05.

[4] = system: HeLa cells vs NIH/3T3 cells; assay: Selectivity index (IC50 NIH/3T3 divided by IC50 HeLa); type: cell-based; details: IC50 NIH/3T3 / IC50 HeLa; SI ≥ 2 considered selective
Method: The selectivity index (SI) was calculated by dividing the IC50 value of NIH/3T3 cells by the IC50 of HeLa cells. Samples with SI ≥ 2 were considered selectively cytotoxic to cancer cells.

[5] = system: HeLa (cervical cancer) cells; assay: MTT cell viability assay in HeLa cells; type: cell-based, human
Method: as §1, §2
Following treatment, the medium was removed, and 100 µL/well of MTT reagent (5 mg/mL; 3-[4,5-dimethylthiazol-2-yl]-2,5-diphenyltetrazolium bromide; Invitrogen, Thermo Fisher, Waltham, MA, USA) was added. The plates were incubated for 4 h at 37 °C. After incubation, the resulting formazan crystals formed in viable cells were solubilized by adding 100 µL/well of DMSO (dimethyl sulfoxide; Labsynth, São Paulo, Brazil). Absorbance was measured at 570 nm using an Epoch-Biotek ELISA microplate spectrophotometer (BioTek Instruments, Winooski, VT, USA).
Statistical analysis was performed using GraphPad Prism 8.4.6 (GraphPad Software, Inc., Boston, MA, USA) via one-way ANOVA followed by Tukey’s post hoc test. Differences were considered statistically significant at p < 0.05. All the experiments were conducted in triplicate.

[6] = system: human cervical (HeLa) cancer cells; details: in vitro; cited from earlier work
[7] = system: liver (Hep-G2) cancer cells; details: in vitro; cited from earlier work
[8] = system: non-small-cell lung cancer cells NCI-H358; design: method as in doi:10.3390/scipharm91030042; details: cited from earlier work
[9] = system: breast cancer cells MDA-MB-231; design: method as in doi:10.3390/scipharm91030042; details: cited from earlier work
[10] = system: SiHa cells, a cervical squamous cell carcinoma line; design: method as in PMID 37935292; details: cited from earlier work
[11] = system: breast cancer cells MDA-MB-468; design: method as in doi:10.3390/scipharm91030042; details: cited from earlier work
[12] = system: non-small-cell lung cancer cells A549; design: method as in doi:10.3390/scipharm91030042; details: cited from earlier work

COc1cccc2c1C(=O)c1c(O)c3c(c(O)c1C2=O)C[C@@](O)(C(=O)CO)C[C@@H]3O[C@H]1C[C@H](N)[C@H](O)[C@H](C)O1 [Doxorubicin]
IC50 ([1]; Mus musculus, NIH3T3, 48 h treatment, read-out: IC50 Non-Tumor cells NIH/3T3): 2.32 µg/mL (≈ 4.27 µM) | free area (scratch) at T1 ([2]; 12 h): 39.51% | free area (scratch) at T2 ([2]; 18 h): 36.49% | free area (scratch) at T3 ([2]; 24 h): 32.17% | inhibition of cell migration compared to the negative control [2]: did not significantly inhibit tumor cell migration | cells in SubG0 phase ([3]; negative control 2.97%): 44.20% | cells in G2/M phase ([3]; negative control 7.97%): 0.245% | cells in S phase ([3]; negative control 30.55%): 12.1% | cells in G1/G0 phase ([3]; negative control 56.75%): 42.75% | Selectivity Index (SI) [4]: 1.5 | IC50 ([5]; Homo sapiens, HeLa, 48 h treatment, read-out: IC50 Tumor Cells HeLa): 1.59 µg/mL (≈ 2.93 µM)

unifloratrin
cytotoxicity against HeLa cancer cells [6]: considerable cytotoxicity | cytotoxicity against Hep-G2 cancer cells [7]: considerable cytotoxicity

N.N.O=C([O-])C1(C(=O)[O-])CCC1.[Pt+2] [Carboplatin]
IC50 Non-Tumor cells NIH/3T3 ([1]; 48 h treatment): 38.32 µg/mL | Selectivity Index (SI) [4]: 0.73 | IC50 Tumor Cells HeLa ([5]; 48 h treatment): 52.40 µg/mL | concentrations with statistically significant reduction of HeLa cell viability vs negative control ([5]; p < 0.05): > 25 µg/mL

O=c1oc2c(O)c(O)cc3c(=O)oc4c(O)c(O)cc1c4c23 [ellagic acid, Ellagic acid]
effect on proliferation of NCI-H358 cells [8]: inhibited the proliferation | effect on proliferation of MDA-MB-231 cells [9]: inhibited the proliferation | effect on proliferation of SiHa cells [10]: inhibit cell proliferation | effect on proliferation of MDA-MB-468 cells [11]: inhibited the proliferation | effect on proliferation of A549 cells [12]: inhibited the proliferation

myricitrin
cytotoxicity against HeLa cancer cells [6]: considerable cytotoxicity | cytotoxicity against Hep-G2 cancer cells [7]: considerable cytotoxicity
